Our source for the EC50 values is patent US9598433B2, “Hepatitis C virus inhibitors” (BRISTOL-MYERS SQUIBB COMPANY, priority 2012, dated 2017).

For assay [1], the system named is HCV genotype 1a (H77 strain) replicon in HUH-7 cells. As to the kind of experiment: HCV replicon luciferase reporter assay, genotype 1a. Format: cell-based. The settings on record: Hepatitis C virus, 72 h, genotype 1a replicon, 3 days incubation. In outline:
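Stable HUH-7 line carrying luciferase-reporter genotype 1a (H77) replicon with adaptive NS3 P1496L and NS5A S2204I mutations; 3.0×10^3 cells/well in 4% FCS, 0.5% DMSO, twenty-point 3-fold titration, 3 days at 37 °C. Renilla luminescence with 7.5 μM EnduRen; EC50 by four-parameter logistic fit; CC50 by multiplexed Cell Titer-Blue.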

Assay [2] deals with HCV genotype 1b (Con1) replicon in HUH-7 cells. As to the kind of experiment: HCV replicon luciferase reporter assay, genotype 1b. It is filed as cell-based. The settings on record: Hepatitis C virus, 72 h, genotype 1b replicon, 3 days incubation. In outline: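 Replication was read as Renilla luciferase signal, using 7.5 μM EnduRen substrate with a 2-h incubation at 37 °C. The signal came from a HUH-7 line constitutively expressing a luciferase-tagged 1b (Con1) replicon carrying S1179I.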
Background: In antiviral work, replicon cells carry a viral genome segment that copies itself.

Each structure is given as a SMILES string. Where two headings read alike, the source gives them in different places.

For orientation: EC50 means the concentration at which the effect is half-maximal. For the compound `CC[C@@H]1O[C@H](C)CC/C=C\[C@@H]2C[C@@]2(C(=O)NS(=O)(=O)C2(C)CC2)NC(=O)[C@@H]2C[C@@H](Oc3nc4c(c5ccccc35)CCCO4)CN2C(=O)[C@H]1NC(=O)OC(C)(C)C(C)(F)F` [Compound 2301, 3,3-difluoro-2-methylbutan-2-yl ((2R,6S,7S,9R,13aS,14aR,16aS,Z)-2-((2,3-dihydro-1H-pyrano[2,3-c]isoquinolin-6-yl)oxy)-7-ethyl-9-methyl-14a-(((1-methylcyclopropyl)sulfonyl)carbamoyl)-5,16-dioxo-2,3,5,6,7,9,10,11,13a,14,14a,15,16,16a-tetradecahydro-1H-cyclopropa[i]pyrrolo[1,2-e][1,5,8]oxadiazacyclopentadecin-6-yl)carbamate], the EC50 in assay [1] (read-out: LE_1a (EC50, range)) is 0.51 to 1 nM; in assay [2] (read-out: LE_1b (EC50, range)), 0.1 to 0.5 nM.
The corresponding values for `CC[C@@H]1O[C@H](C)CC/C=C\[C@@H]2C[C@@]2(C(=O)NS(=O)(=O)C2(C)CC2)NC(=O)[C@@H]2C[C@@H](Oc3nc4c(c5ccccc35)CCCO4)CN2C(=O)[C@H]1NC(=O)OC(C)(C)C(F)(F)F` [Compound 2302, 1,1,1-trifluoro-2-methylpropan-2-yl ((2R,6S,7S,9R,13aS,14aR,16aS,Z)-2-((2,3-dihydro-1H-pyrano[2,3-c]isoquinolin-6-yl)oxy)-7-ethyl-9-methyl-14a-(((1-methylcyclopropyl)sulfonyl)carbamoyl)-5,16-dioxo-2,3,5,6,7,9,10,11,13a,14,14a,15,16,16a-tetradecahydro-1H-cyclopropa[i]pyrrolo[1,2-e][1,5,8]oxadiazacyclopentadecin-6-yl)carbamate] are 0.51 to 1 nM and 0.1 to 0.5 nM.
The corresponding values for `C[C@@H]1CC/C=C\[C@@H]2C[C@@]2(C(=O)NS(=O)(=O)C2(C)CC2)NC(=O)[C@@H]2C[C@@H](Oc3nc4c(c5ccccc35)CCCO4)CN2C(=O)[C@@H](NC(=O)OC(C)(C)C(C)(F)F)[C@H](C)O1` [Compound 2303, 3,3-difluoro-2-methylbutan-2-yl ((2R,6S,7S,9R,13aS,14aR,16aS,Z)-2-((2,3-dihydro-1H-pyrano[2,3-c]isoquinolin-6-yl)oxy)-7,9-dimethyl-14a-(((1-methylcyclopropyl)sulfonyl)carbamoyl)-5,16-dioxo-2,3,5,6,7,9,10,11,13a,14,14a,15,16,16a-tetradecahydro-1H-cyclopropa[i]pyrrolo[1,2-e][1,5,8]oxadiazacyclopentadecin-6-yl)carbamate] are 0.51 to 1 nM and 0.51 to 1 nM.
On to `C[C@@H]1CC/C=C\[C@@H]2C[C@@]2(C(=O)NS(=O)(=O)C2(C)CC2)NC(=O)[C@@H]2C[C@@H](Oc3nc4c(c5ccccc35)CCCO4)CN2C(=O)[C@@H](NC(=O)OC(C)(C)C(F)F)[C@H](C)O1` [Compound 2304, 1,1-difluoro-2-methylpropan-2-yl ((2R,6S,7S,9R,13aS,14aR,16aS,Z)-2-((2,3-dihydro-1H-pyrano[2,3-c]isoquinolin-6-yl)oxy)-7,9-dimethyl-14a-(((1-methylcyclopropyl)sulfonyl)carbamoyl)-5,16-dioxo-2,3,5,6,7,9,10,11,13a,14,14a,15,16,16a-tetradecahydro-1H-cyclopropa[i]pyrrolo[1,2-e][1,5,8]oxadiazacyclopentadecin-6-yl)carbamate], for which the concentration for a half-maximal effect (EC50) was 0.49 nM in assay [1] (read-out: LE_1a (EC50)); 0.1 to 0.5 nM in assay [1] (read-out: LE_1a (EC50, range)); 0.64 nM in assay [2] (read-out: LE_1b (EC50)); 0.51 to 1 nM in assay [2] (read-out: LE_1b (EC50, range)).
As for `C[C@@H]1CC/C=C\[C@@H]2C[C@@]2(C(=O)NS(=O)(=O)C2(C)CC2)NC(=O)[C@@H]2C[C@@H](Oc3nc4c(c5ccccc35)CCCO4)CN2C(=O)[C@@H](NC(=O)OC(C)(C)C(F)(F)F)[C@H](C)O1` [Compound 2305, 1,1,1-trifluoro-2-methylpropan-2-yl ((2R,6S,7S,9R,13aS,14aR,16aS,Z)-2-((2,3-dihydro-1H-pyrano[2,3-c]isoquinolin-6-yl)oxy)-7,9-dimethyl-14a-(((1-methylcyclopropyl)sulfonyl)carbamoyl)-5,16-dioxo-2,3,5,6,7,9,10,11,13a,14,14a,15,16,16a-tetradecahydro-1H-cyclopropa[i]pyrrolo[1,2-e][1,5,8]oxadiazacyclopentadecin-6-yl)carbamate], the EC50 fell in the range of 0.51 to 1 nM in assay [1] (read-out: LE_1a (EC50, range)) and 0.51 to 1 nM in assay [2] (read-out: LE_1b (EC50, range)).
With `COc1ccc2c(O[C@@H]3C[C@H]4C(=O)N[C@]5(C(=O)NS(=O)(=O)C6(C)CC6)C[C@H]5/C=C\CC[C@@H](C)O[C@@H](C)[C@H](NC(=O)OC(C)(C)C(F)(F)F)C(=O)N4C3)nc3c(c2c1)CCCO3` [Compound 2306, 1,1,1-trifluoro-2-methylpropan-2-yl ((2R,6S,7S,9R,13aS,14aR,16aS,Z)-2-((9-methoxy-2,3-dihydro-1H-pyrano[2,3-c]isoquinolin-6-yl)oxy)-7,9-dimethyl-14a-(((1-methylcyclopropyl)sulfonyl)carbamoyl)-5,16-dioxo-2,3,5,6,7,9,10,11,13a,14,14a,15,16,16a-tetradecahydro-1H-cyclopropa[i]pyrrolo[1,2-e][1,5,8]oxadiazacyclopentadecin-6-yl)carbamate], the EC50 in assay [1] (read-out: LE_1a (EC50, range)) was 0.1 to 0.5 nM; in assay [2] (read-out: LE_1b (EC50, range)) it was 0.1 to 0.5 nM.
`CC[C@@H]1O[C@H](C)CC/C=C\[C@@H]2C[C@@]2(C(=O)NS(=O)(=O)C2(C)CC2)NC(=O)[C@@H]2C[C@@H](Oc3nc4c(c5cc(OC)ccc35)CCCO4)CN2C(=O)[C@H]1NC(=O)OC(C)(C)C(F)(F)F` [Compound 2307, 1,1,1-trifluoro-2-methylpropan-2-yl ((2R,6S,7S,9R,13aS,14aR,16aS,Z)-7-ethyl-2-((9-methoxy-2,3-dihydro-1H-pyrano[2,3-c]isoquinolin-6-yl)oxy)-9-methyl-14a-(((1-methylcyclopropyl)sulfonyl)carbamoyl)-5,16-dioxo-2,3,5,6,7,9,10,11,13a,14,14a,15,16,16a-tetradecahydro-1H-cyclopropa[i]pyrrolo[1,2-e][1,5,8]oxadiazacyclopentadecin-6-yl)carbamate]: the EC50 in assay [1] (read-out: LE_1a (EC50, range)) was in the range of 0.1 to 0.5 nM; in assay [2] (read-out: LE_1b (EC50, range)), 0.1 to 0.5 nM.
Take `CC[C@@H]1O[C@H](C)CC/C=C\[C@@H]2C[C@@]2(C(=O)NS(=O)(=O)C2(C)CC2)NC(=O)[C@@H]2C[C@@H](Oc3nc4c(c5cc(OC)ccc35)CCCO4)CN2C(=O)[C@H]1NC(=O)OC(C)(C)C(C)(F)F` [Compound 2308, 3,3-difluoro-2-methylbutan-2-yl ((2R,6S,7S,9R,13aS,14aR,16aS,Z)-7-ethyl-2-((9-methoxy-2,3-dihydro-1H-pyrano[2,3-c]isoquinolin-6-yl)oxy)-9-methyl-14a-(((1-methylcyclopropyl)sulfonyl)carbamoyl)-5,16-dioxo-2,3,5,6,7,9,10,11,13a,14,14a,15,16,16a-tetradecahydro-1H-cyclopropa[i]pyrrolo[1,2-e][1,5,8]oxadiazacyclopentadecin-6-yl)carbamate]: the EC50 is 0.1 to 0.5 nM in assay [1] (read-out: LE_1a (EC50, range)) and 0.1 to 0.5 nM in assay [2] (read-out: LE_1b (EC50, range)).
As to `COc1ccc2c(O[C@@H]3C[C@H]4C(=O)N[C@]5(C(=O)NS(=O)(=O)C6(C)CC6)C[C@H]5/C=C\CC[C@@H](C)O[C@@H](C)[C@H](NC(=O)OC(C)(C)C(C)(F)F)C(=O)N4C3)nc3c(c2c1)CCCO3` [Compound 2309, 3,3-difluoro-2-methylbutan-2-yl ((2R,6S,7S,9R,13aS,14aR,16aS,Z)-2-((9-methoxy-2,3-dihydro-1H-pyrano[2,3-c]isoquinolin-6-yl)oxy)-7,9-dimethyl-14a-(((1-methylcyclopropyl)sulfonyl)carbamoyl)-5,16-dioxo-2,3,5,6,7,9,10,11,13a,14,14a,15,16,16a-tetradecahydro-1H-cyclopropa[i]pyrrolo[1,2-e][1,5,8]oxadiazacyclopentadecin-6-yl)carbamate], the EC50 in assay [1] (read-out: LE_1a (EC50, range)) lay in the range of 0.51 to 1 nM; in assay [2] (read-out: LE_1b (EC50, range)) it was 0.51 to 1 nM.
Take `COc1ccc2c(O[C@@H]3C[C@H]4C(=O)N[C@]5(C(=O)NS(=O)(=O)C6(C)CC6)C[C@H]5/C=C\CC[C@@H](C)O[C@@H](C)[C@H](NC(=O)OC(C)(C)C(F)F)C(=O)N4C3)nc3c(c2c1)CCCO3` [Compound 2310, 1,1-difluoro-2-methylpropan-2-yl ((2R,6S,7S,9R,13aS,14aR,16aS,Z)-2-((9-methoxy-2,3-dihydro-1H-pyrano[2,3-c]isoquinolin-6-yl)oxy)-7,9-dimethyl-14a-(((1-methylcyclopropyl)sulfonyl)carbamoyl)-5,16-dioxo-2,3,5,6,7,9,10,11,13a,14,14a,15,16,16a-tetradecahydro-1H-cyclopropa[i]pyrrolo[1,2-e][1,5,8]oxadiazacyclopentadecin-6-yl)carbamate]: the EC50 is 0.1 to 0.5 nM in assay [1] (read-out: LE_1a (EC50, range)) and 0.1 to 0.5 nM in assay [2] (read-out: LE_1b (EC50, range)).
As to `CC[C@@H]1O[C@H](C)CC/C=C\[C@@H]2C[C@@]2(C(=O)NS(=O)(=O)C2(C)CC2)NC(=O)[C@@H]2C[C@@H](Oc3nc4c(c5cc(OC)ccc35)CCCO4)CN2C(=O)[C@H]1NC(=O)OC(C)(C)C(F)F` [Compound 2311, 1,1-difluoro-2-methylpropan-2-yl ((2R,6S,7S,9R,13aS,14aR,16aS,Z)-7-ethyl-2-((9-methoxy-2,3-dihydro-1H-pyrano[2,3-c]isoquinolin-6-yl)oxy)-9-methyl-14a-(((1-methylcyclopropyl)sulfonyl)carbamoyl)-5,16-dioxo-2,3,5,6,7,9,10,11,13a,14,14a,15,16,16a-tetradecahydro-1H-cyclopropa[i]pyrrolo[1,2-e][1,5,8]oxadiazacyclopentadecin-6-yl)carbamate], the EC50 lay within 0.1 to 0.5 nM in assay [1] (read-out: LE_1a (EC50, range)) and 0.1 to 0.5 nM in assay [2] (read-out: LE_1b (EC50, range)).
